One test has as its target T1, full-length human BTK (Homo sapiens, UniProt Q06187).
T1 construct: 2.5× stocks of full-length human BTK (08-080) from CarnaBio USA, Inc; purchased CarnaBio USA, Inc., Natick, Mass; 08-080
As to the kind of experiment: BTK IC50 Enzyme Assay (Assay A), microfluidic off-chip mobility shift kinase assay. In kind it is biochemical. As to conditions: kinKDR peptide substrate, 90 min at 27° C. As for the experimental part: BTK IC50 Enzyme Assay (Assay A)
The following describes a microfluidic, off-chip mobility shift kinase assay used to measure inherent potency of compounds against BTK enzyme.
2.5× stocks of full-length human BTK (08-080) from CarnaBio USA, Inc., Natick, Mass., 1.6×ATP and appropriate kinKDR peptide substrate (FITC-AHA-EEPLYWSFPAKKK10 NH2) were prepared in kinase reaction buffer consisting of 25 mM MgCl2, 0.015% Brij-35 (30%), 100 mM Hepes, pH 7.5, and 10 mM DTT.
5 uL of enzyme buffer and 7.5 uL of ATP/kinKDR peptide substrate mix were added to Matrix (#115304) 384-well, sterile, polypropylene plates (Thermo Fisher Scientific, 15 Hudson, N.H.) with 125 nL of serially diluted compounds prepared in 100% DMSO, and incubated for 90 min. at 27° C. Following the incubation period, reactions were stopped by adding 60 uL stop buffer consisting of 100 mM Hepes, pH 7.5, 0.015% Brij-35 (30%), 0.277% Coating Reagent #3 (Caliper Life Sciences, Mountain View, Calif.), 5% DMSO. Stopped reactions were monitored at −2 PSI, −3000 V/−700 V in a LabChip 3000 plate 20 reader from Caliper Life Sciences, a PerkinElmer Company (Hopkinton, Mass.), and the activity was measured by off-chip mobility shift assay measuring the charge/mass difference between substrate and product resulting from peptide phosphorilation. IC50 and efficacy were determined by plotting log [Inhibitor] vs. % Activity in GeneData Screener (Basel, Switzerland).

Test [1] has as its system anti-IgM-induced expression of CD69 in freshly isolated human peripheral blood mononuclear cells (PBMCs). The experiment in a line: Assay B: inhibition of anti-IgM-induced expression of CD69 on CD19 positive cells (B cells) in human PBMCs. The class given is cell-based. The settings on record: PBMC, 1 h pre-treatment, overnight anti-human IgM stimulation, CD69 on CD19 positive cells by flow cytometry, read-out: Assay B (mol/L (M)). On the procedure:
Btk is critical for mediating the signalling of B cell antigen receptor (BCR) after anti-IgM stimulation. Based on this principle, a functional cell-based assay was established to determine the potency of compounds at inhibiting anti-IgM-induced expression of CD69, a downstream BCR signalling event, in freshly isolated human peripheral blood mononuclear cells (PBMCs). In the assay, a 90 μl PBMC suspension containing 2.5×10^5 cells was pre-treated with 10 μl of test compound at various concentrations for an hour, and then incubated overnight (approximately 16-18 hours) with 5 μl 420 μg/ml affiniPure F(ab′)2 fragment goat anti-human IgM Fc fragment per well (Dianova, Cat. No.: 109-006-129). After the incubation, the cells were washed and immunostained with an APC labelled mouse anti-human CD69 (BD Biosciences; clone: FN50), a PerCP-Cy5.5 labelled mouse anti-human CD19 (BD Biosciences; clone: SJ25C1) and a FITC-labelled mouse anti-human CD3 (BD Biosciences; clone: HIT3a), and fixed for flow cytometric analysis of CD69 expression on CD19 positive cells (B cells). The percentage of CD69 expressing CD19 positive cells was plotted against the concentrations of test compounds to obtain a concentration response curve, and calculate an IC50 value as a measure of the potency of test compounds in the assay.
On the technique in general: Flow cytometry measures light scatter and fluorescence of single cells or particles in a stream.

pIC50: −log10 of the molar value.

T1 sequence (Q06187 whole entry): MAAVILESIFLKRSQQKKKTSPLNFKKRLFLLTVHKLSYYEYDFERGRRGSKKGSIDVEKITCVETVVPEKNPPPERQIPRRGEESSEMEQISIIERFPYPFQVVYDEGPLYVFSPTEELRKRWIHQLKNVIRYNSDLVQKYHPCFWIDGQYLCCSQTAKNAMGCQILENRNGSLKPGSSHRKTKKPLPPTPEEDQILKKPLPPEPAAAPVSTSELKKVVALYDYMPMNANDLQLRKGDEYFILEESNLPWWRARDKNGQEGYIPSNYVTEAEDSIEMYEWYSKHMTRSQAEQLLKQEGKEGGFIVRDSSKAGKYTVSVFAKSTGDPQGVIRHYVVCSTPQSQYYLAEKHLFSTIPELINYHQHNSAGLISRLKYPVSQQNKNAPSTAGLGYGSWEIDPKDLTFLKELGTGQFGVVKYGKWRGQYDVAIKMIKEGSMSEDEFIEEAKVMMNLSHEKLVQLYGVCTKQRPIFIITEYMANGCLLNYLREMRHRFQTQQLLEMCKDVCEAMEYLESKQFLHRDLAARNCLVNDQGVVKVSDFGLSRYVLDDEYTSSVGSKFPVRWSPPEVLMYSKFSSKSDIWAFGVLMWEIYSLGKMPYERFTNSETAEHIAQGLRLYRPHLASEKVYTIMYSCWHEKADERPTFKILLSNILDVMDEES

As for `C=CC(=O)N[C@H]1C[C@@H](n2ccc3ncnc(Oc4ccc(Oc5ccccc5)cc4)c32)C1` [Compound 10, N-(cis-3-(4-(4-phenoxyphenoxy)-5H-pyrrolo[3,2-d]pyrimidin-5-yl)cyclobutyl)acrylamide], at full-length human BTK, the negative logarithm of the IC50 (pIC50) is above 7.00. The IC50 in test [1] lay within 1e-07 to 1e-06 M.
For `N#CN1CC[C@H](n2ccc3ncnc(Oc4ccc(Oc5ccccc5)cc4)c32)C1` [Compound 72, (3S)-3-[4-(4-phenoxyphenoxy)-5H-pyrrolo[3,2-d]pyrimidin-5-yl]pyrrolidine-1-carbonitrile] the same measures were above 7.00 and 1e-07 to 1e-06 M.
For `CN(C)C/C=C/C(=O)N1CC(n2ccc3ncc(-c4ccc(Oc5ccccc5)cc4)cc32)C1` [Compound 13, (E)-4-(dimethylamino)-1-(3-(6-(4-phenoxyphenyl)-1H-pyrrolo[3,2-b]pyridin-1-yl)azetidin-1-yl)but-2-en-1-one], at full-length human BTK, the negative-log IC50 (pIC50) is above 7.00. In test [1], the IC50 was 1e-07 to 1e-06 M.
Consider `N#CN1CCC(n2ccc3ncnc(Oc4ccc(Oc5ccccc5)cc4)c32)C1` (stereo not drawn) [Compound 60, 3-[4-(4-phenoxyphenoxy)-5H-pyrrolo[3,2-d]pyrimidin-5-yl]pyrrolidine-1-carbonitrile], for which, on full-length human BTK, the pIC50 was above 7.00. In test [1], the IC50 is 1e-07 to 1e-06 M.
For `O=C(CCCCCNc1ccc([N+](=O)[O-])c2nonc12)NCCN1CCN(C/C=C/C(=O)N2CC(n3ccc4ncnc(Oc5ccc(Oc6ccccc6)cc5)c43)C2)CC1` [Compound 31, (E)-6-((7-nitrobenzo[c][1,2,5]oxadiazol-4-yl)amino)-N-(2-(4-(4-oxo-4-(3-(4-(4-phenoxyphenoxy)-5H-pyrrolo[3,2-d]pyrimidin-5-yl)azetidin-1-yl)but-2-en-1-yl)piperazin-1-yl)ethyl)hexanamide] the same measures were above 7.00 and 1e-06 to 5e-06 M.
Regarding `CN(C)C/C=C/C(=O)N1CCC(n2ccc3ncnc(Oc4ccc(Oc5ccccc5)cc4)c32)CC1` [Compound 1, (E)-4-(dimethylamino)-1-(4-(4-(4-phenoxyphenoxy)-5H-pyrrolo[3,2-d]pyrimidin-5-yl)piperidin-1-yl)but-2-en-1-one], the negative logarithm of the IC50 (pIC50) on full-length human BTK was above 7.00.
For the compound `C=CC(=O)N1CC(n2ccc3ncnc(Oc4ccc(Oc5ccccc5)cc4)c32)C1` [Compound 3, 1-(3-(4-(4-phenoxyphenoxy)-5H-pyrrolo[3,2-d]pyrimidin-5-yl)azetidin-1-yl)prop-2-en-1-one], the pIC50 at full-length human BTK is above 7.00. Also, the IC50 in test [1] was below 1e-07 M.
Regarding `C=CC(=O)N1CC(n2ccc3ncnc(Oc4ccc(NC(=O)c5ccccc5)cc4)c32)C1` [Compound 35, N-(4-((5-(1-acryloylazetidin-3-yl)-5H-pyrrolo[3,2-d]pyrimidin-4-yl)oxy)phenyl)benzamide], the pIC50 at full-length human BTK is 6.00 to 7.00.
On the same count and under the same terms, in the case of `C=CC(=O)N1CCC(n2ncc3ncnc(Oc4ccc(Oc5ccccc5)cc4)c32)CC1` [Compound 12, 1-(4-(7-(4-phenoxyphenoxy)-1H-pyrazolo[4,3-d]pyrimidin-1-yl)piperidin-1-yl)prop-2-en-1-one] it was above 7.00; in that of `C=CC(=O)N1CCC(n2ccc3ncnc(-c4cccc(Oc5ccccc5)c4)c32)CC1` [Compound 50, 1-(4-(4-(3-phenoxyphenyl)-5H-pyrrolo[3,2-d]pyrimidin-5-yl)piperidin-1-yl)prop-2-en-1-one], below 5.30; in that of `CC1=CC(C)=[N+]2C1=Cc1ccc(CCC(=O)NCCN3CCN(C/C=C/C(=O)N4CC(n5ccc6ncnc(Oc7ccc(Oc8ccccc8)cc7)c65)C4)CC3)n1[B-]2(F)F` [Compound 32, (E)-5,5-difluoro-1,3-dimethyl-7-(3-oxo-3-((2-(4-(4-oxo-4-(3-(4-(4-phenoxyphenoxy)-5H-pyrrolo[3,2-d]pyrimidin-5-yl)azetidin-1-yl)but-2-en-1-yl)piperazin-1-yl)ethyl)amino)propyl)-5H-dipyrrolo[1,2-c:2′,1′-f][1,3,2]diazaborinin-4-ium-5-uide], 6.00 to 7.00.
Same read-out and setting: in the case of `CN(C#N)[C@H]1CC[C@H](n2ccc3ncnc(Oc4ccc(Oc5ccccc5)cc4)c32)CC1` [Compound 70, (1R,4R)—N-cyano-N-methyl-4-[4-(4-phenoxyphenoxy)-5H-pyrrolo[3,2-d]pyrimidin-5-yl]cyclohexan-1-amine] it was 6.00 to 7.00; in that of `CN(C)C/C=C/C(=O)N1CCC(n2ncc3ncnc(Oc4ccc(Oc5ccccc5)cc4)c32)CC1` [Compound 14, (E)-4-(dimethylamino)-1-(4-(7-(4-phenoxyphenoxy)-1H-pyrazolo[4,3-d]pyrimidin-1-yl)piperidin-1-yl)but-2-en-1-one], above 7.00; in that of `N#CN1CCC(n2ccc3ncnc(Oc4ccc(Oc5ccccc5)cc4)c32)CC1` [Compound 56, 4-(4-(4-phenoxyphenoxy)-5H-pyrrolo[3,2-d]pyrimidin-5-yl)piperidine-1-carbonitrile], 5.30 to 6.00.
Same read-out and setting: in the case of `C=CC(=O)N1CC(n2ccc3ncc(-c4cnn(Cc5ccccc5)c4)nc32)C1` [Compound 52, 1-(3-(3-(1-benzyl-1H-pyrazol-4-yl)-5H-pyrrolo[2,3-b]pyrazin-5-yl)azetidin-1-yl)prop-2-en-1-one] it was 6.00 to 7.00; in that of `C=CC(=O)N1CCCC(Cn2ccc3ncnc(-c4ccc(Oc5ccccc5)cc4)c32)C1` (stereo not drawn) [Compound 48, 1-(3-((4-(4-phenoxyphenyl)-5H-pyrrolo[3,2-d]pyrimidin-5-yl)methyl)piperidin-1-yl)prop-2-en-1-one], below 5.30.
In the case of `C=CC(=O)N1CCC(Cn2ccc3ncnc(-c4cccc(Oc5ccccc5)c4)c32)CC1` [Compound 45, 1-(4-((4-(3-phenoxyphenyl)-5H-pyrrolo[3,2-d]pyrimidin-5-yl)methyl)piperidin-1-yl)prop-2-en-1-one], the pIC50 on full-length human BTK was 5.30 to 6.00.
For `N#CN1CCC1Cn1ccc2ncnc(Oc3ccc(Oc4ccccc4)cc3)c21` (stereo not drawn) [Compound 65, 2-[[4-(4-phenoxyphenoxy)-5H-pyrrolo[3,2-d]pyrimidin-5-yl]methyl]azetidine-1-carbonitrile], the pIC50 on full-length human BTK is 5.30 to 6.00.

A word on the pIC50: it is the negative decadic logarithm of the IC50, by convention in mol/L.

These data come from patent publication US9738648B2, “Pyridines, pyrimidines, and pyrazines, as BTK inhibitors and uses thereof” (Merck Patent GmbH, priority 2013, dated 2017).
